According to US10670605B2, “Cysteine reactive probes and uses thereof” (The Scripps Research Institute, priority 2015, dated 2020):

What was measured:
Experiment in all cases: Competitive isoTOP-ABPP, cell lysates
Format in all cases: binding
[1] = target: T1, USP22 C171 (Q9UPT9) (Homo sapiens, UniProt Q9UPT9)
T1 sequence (Q9UPT9 1-525): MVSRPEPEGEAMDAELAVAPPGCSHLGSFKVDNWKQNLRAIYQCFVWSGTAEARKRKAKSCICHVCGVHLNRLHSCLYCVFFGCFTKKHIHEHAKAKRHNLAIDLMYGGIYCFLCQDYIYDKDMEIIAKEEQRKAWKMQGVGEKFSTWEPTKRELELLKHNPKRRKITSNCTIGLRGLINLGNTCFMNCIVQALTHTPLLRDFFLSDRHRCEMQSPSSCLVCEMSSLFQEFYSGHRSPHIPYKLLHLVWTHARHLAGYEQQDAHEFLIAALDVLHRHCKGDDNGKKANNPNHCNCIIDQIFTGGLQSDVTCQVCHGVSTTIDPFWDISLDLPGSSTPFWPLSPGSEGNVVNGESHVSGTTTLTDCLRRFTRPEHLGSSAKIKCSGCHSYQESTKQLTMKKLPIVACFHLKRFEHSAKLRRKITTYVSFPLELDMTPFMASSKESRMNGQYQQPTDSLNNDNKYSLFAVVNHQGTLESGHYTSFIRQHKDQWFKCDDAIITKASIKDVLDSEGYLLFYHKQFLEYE

[2] = target: T2, MGMT C150 (P16455) (Homo sapiens, UniProt P16455); conditions: for isoTOP-ABPP ratio (reactivity profile), P16455_C150: 500 μm in-vitro ramos
T2 sequence (P16455 1-207): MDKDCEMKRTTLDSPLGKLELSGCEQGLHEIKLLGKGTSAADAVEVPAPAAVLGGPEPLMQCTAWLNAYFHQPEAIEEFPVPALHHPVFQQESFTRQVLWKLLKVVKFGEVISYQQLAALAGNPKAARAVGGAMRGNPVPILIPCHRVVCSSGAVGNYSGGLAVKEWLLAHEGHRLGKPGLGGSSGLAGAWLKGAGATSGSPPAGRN

[3] = target: ZNF217 C286 (O75362) (Homo sapiens, UniProt O75362); conditions: for isoTOP-ABPP ratio (reactivity profile), O75362_C286: 500 μm in-vitro ramos_231
[4] = target: T3, ACAT1 C196 (P24752) (Homo sapiens, UniProt P24752)
T3 sequence (P24752 34-427): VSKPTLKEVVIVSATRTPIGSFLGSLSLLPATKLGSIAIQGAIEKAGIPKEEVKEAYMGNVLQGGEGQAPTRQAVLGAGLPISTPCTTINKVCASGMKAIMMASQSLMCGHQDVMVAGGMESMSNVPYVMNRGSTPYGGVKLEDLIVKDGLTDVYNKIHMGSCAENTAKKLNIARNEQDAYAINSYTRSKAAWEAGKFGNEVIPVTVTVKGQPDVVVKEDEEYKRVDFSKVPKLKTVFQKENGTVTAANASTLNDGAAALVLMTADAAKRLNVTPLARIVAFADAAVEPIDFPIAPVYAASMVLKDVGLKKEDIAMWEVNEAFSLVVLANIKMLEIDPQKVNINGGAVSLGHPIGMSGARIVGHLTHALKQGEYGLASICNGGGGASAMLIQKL

ZNF217 C286 (O75362), sequence (O75362 whole entry): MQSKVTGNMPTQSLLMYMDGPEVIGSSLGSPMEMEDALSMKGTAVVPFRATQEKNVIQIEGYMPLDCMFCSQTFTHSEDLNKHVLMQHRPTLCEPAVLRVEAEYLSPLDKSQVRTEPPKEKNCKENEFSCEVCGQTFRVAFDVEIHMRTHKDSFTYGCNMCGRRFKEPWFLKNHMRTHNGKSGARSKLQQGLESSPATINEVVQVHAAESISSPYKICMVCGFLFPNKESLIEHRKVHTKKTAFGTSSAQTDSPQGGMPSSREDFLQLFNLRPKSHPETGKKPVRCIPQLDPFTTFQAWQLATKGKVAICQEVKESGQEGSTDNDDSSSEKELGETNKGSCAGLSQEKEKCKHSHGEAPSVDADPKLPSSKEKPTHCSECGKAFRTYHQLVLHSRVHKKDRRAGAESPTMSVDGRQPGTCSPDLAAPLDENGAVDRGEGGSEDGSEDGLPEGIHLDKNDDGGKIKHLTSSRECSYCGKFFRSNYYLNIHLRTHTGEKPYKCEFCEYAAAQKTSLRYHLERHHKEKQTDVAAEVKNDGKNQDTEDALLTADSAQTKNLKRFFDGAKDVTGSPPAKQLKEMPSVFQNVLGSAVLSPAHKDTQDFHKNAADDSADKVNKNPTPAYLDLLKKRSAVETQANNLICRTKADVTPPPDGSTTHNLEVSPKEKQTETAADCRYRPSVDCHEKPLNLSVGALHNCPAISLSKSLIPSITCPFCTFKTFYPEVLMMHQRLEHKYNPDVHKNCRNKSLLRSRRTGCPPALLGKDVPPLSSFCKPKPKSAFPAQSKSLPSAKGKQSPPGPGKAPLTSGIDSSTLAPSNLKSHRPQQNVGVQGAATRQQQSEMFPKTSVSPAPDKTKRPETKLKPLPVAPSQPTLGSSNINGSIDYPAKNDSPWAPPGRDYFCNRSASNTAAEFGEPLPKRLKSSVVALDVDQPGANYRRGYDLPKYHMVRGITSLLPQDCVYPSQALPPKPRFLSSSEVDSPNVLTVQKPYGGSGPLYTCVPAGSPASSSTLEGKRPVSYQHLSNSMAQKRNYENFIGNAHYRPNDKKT

SMILES | isoTOP-ABPP ratio, Q9UPT9_C171 ([1]; 500 μM, invitro, ramos) | isoTOP-ABPP ratio, P16455_C150 ([2]; 500 μM, invitro, ramos) | isoTOP-ABPP ratio, P24752_C196 ([4]; 500 μM, invitro, 231) | isoTOP-ABPP ratio, P24752_C196 ([4]; 500 μM, invitro, ramos) | isoTOP-ABPP ratio O75362_C286 ([3]; 500 μM, invitro, 231) | isoTOP-ABPP ratio (reactivity profile), P16455_C150 [2] | isoTOP-ABPP ratio (reactivity profile), P24752_C196 ([4]; 500 μm in-vitro ramos) | further results
COc1ccc2c(c1)CCCN2C(=O)CCl [compound 2] | – | – | – | – | – | – | – | R value (DMSO/fragment) ([1]; 500 μM, invitro, ramos): 7.1; R value (DMSO/fragment) ([2]; 500 μM, invitro, ramos): 20.0; R value (DMSO/fragment) ([3]; 500 μM, in vitro, MDA-MB-231): 20.0; R value (DMSO/fragment) ([3]; 500 μM, invitro, ramos): 20.0; R value (DMSO/fragment) ([4]; 500 μM, in vitro, MDA-MB-231): 12.4; R value (DMSO/fragment) ([4]; 500 μM, invitro, ramos): 9.3
COc1ccc(C2CC(c3cccs3)=NN2C(=O)CCl)cc1 (centres unmarked) [compound 4] | – | – | – | – | – | – | – | R value (DMSO/fragment) ([1]; 250 μM, in vitro, Ramos): 4.0; R value (DMSO/fragment) ([2]; 250 μM, in vitro, Ramos): 6.9; R value (DMSO/fragment) ([3]; 250 μM, in vitro, MDA-MB-231): 1.7; R value (DMSO/fragment) ([4]; 250 μM, in vitro, MDA-MB-231): 1.9; R value (DMSO/fragment) ([4]; 250 μM, in vitro, Ramos): 0.5
C=CC(=O)N(c1ccccc1)c1ccc(Br)cc1 [compound 5] | 20.0 | 9.6 | 1.5 | 2.2 | – | – | – | –
O=C(CCl)N1CCN(S(=O)(=O)c2ccccc2F)CC1 [compound 10] | 3.8 | 20.0 | 2.5 | 1.7 | 1.1 | – | – | –
Cn1cc(S(=O)(=O)N2CCOCC2)cc1C(=O)NC(=O)CCl [compound 11] | 8.2 | 20.0 | 1.5 | 1.3 | 1.2 | – | – | isoTOP-ABPP ratio O75362_C286 ([3]; 500 μM, invitro, ramos): 1.2
O=C(CCl)NC(=O)NC12CC3CC(CC(C3)C1)C2 [compound 12] | 4.1 | 20.0 | 1.2 | 0.9 | 1.0 | – | – | –
O=C(CCl)NCCc1c[nH]c2ccccc12 [compound 13] | 0.8 | 4.2 | 1.6 | 1.7 | 0.9 | – | – | isoTOP-ABPP ratio O75362_C286 ([3]; 500 μM, invitro, ramos): 0.9
O=C(CCl)N1CCC(C(O)(c2ccccc2)c2ccccc2)CC1 [compound 20] | – | – | – | – | – | 18.3 | 2.9 | isoTOP-ABPP ratio (reactivity profile), Q9UPT9_C171 ([1]; 500 μm in-vitro ramos): 20.0; isoTOP-ABPP ratio (reactivity profile), O75362_C286 [3]: 1.3; isoTOP-ABPP ratio (reactivity profile), P24752_C196 ([4]; 500 μm in-vitro ramos_231): 3.7
O=C(CCl)N1CCOCC1 [compound 22] | – | – | – | – | – | 2.9 | 0.7 | isoTOP-ABPP ratio (reactivity profile), Q9UPT9_C171 ([1]; 500 μm in-vitro ramos): 1.1; isoTOP-ABPP ratio (reactivity profile), P24752_C196 ([4]; 500 μm in-vitro ramos_231): 1.4
N#C/C(=C\c1cc(C(F)(F)F)cc(C(F)(F)F)c1)C(N)=O [compound 23] | – | – | – | – | – | 1.0 | 1.8 | isoTOP-ABPP ratio (reactivity profile), Q9UPT9_C171 ([1]; 500 μm in-vitro ramos_231): 5.1; isoTOP-ABPP ratio (reactivity profile), O75362_C286 [3]: 20.0
CC(Br)C(=O)Nc1cc(C(F)(F)F)cc(C(F)(F)F)c1 (centres unmarked) [compound 24] | – | – | – | – | – | 4.0 | 1.1 | isoTOP-ABPP ratio (reactivity profile), Q9UPT9_C171 ([1]; 500 μm in-vitro ramos): 3.1
